Measurements reported in patent publication US20120295321A1, “Pentose Transporters and Uses Thereof” (Universiteit Utrecht Holding B.V., priority 2009, published 2012).
Where two headings read alike, the source gives them in different places.

What was measured:
[1] = test system: S. cerevisiae strain expressing the 0560 (An06g00560) transporter; assay: toxic effect of pentose on yeast growth, strain expressing 0560 transporter; assay type: cell-based, Saccharomyces cerevisiae; details: 50 mM maltose, YNB + 2% agar + 0.5 mM CuSO4; also: key: ++++: very good growth; +++: good growth; ++: poor growth; +: very poor growth; +/−: growth barely visible; −: no growth
Protocol: (§1) Yeast strain EB.VW4000 was grown on YP [1% (w/v) Bacto yeast extract/2% (w/v) Bacto peptone]with 2% (w/v) maltose at 30° C. (ref strain). Other S. cerevisiae strains used were derived from strain EB.VW4000, and were transformed with plasmids based on pYEX-BX (Clontech). Plasmid transformations of yeast cells were carried out according to the quick and easy TRAFO protocol [TRAFO reference]. Yeast strains were grown at 30° C. in a rotary shaker at 250 rev./min, in YNB[0.67% (w/v) Difco yeast nitrogen base] supplemented with 0.1% (w/v) casamino acids and 0.2 mg/l tryptophan, 20 mg/l leucine, 20 mg/l histidine, 122 mg/l uridine. The carbon sources used were as stated in the text. Unless stated otherwise, 0.5 mM CuSO4 was used to induce expression from the CUP1 promoter.
(§2) Yeast strains provided with an exemplary novel pentose transporter were studied with respect to the effect of growth in the presence of pentose sugars.

[2] = test system: S. cerevisiae strain expressing the 1100 (An11g01100) transporter; assay: toxic effect of pentose on yeast growth, strain expressing 1100 transporter; assay type: cell-based, Saccharomyces cerevisiae; details: 50 mM maltose, YNB + 2% agar + 0.5 mM CuSO4; also: key: ++++: very good growth; +++: good growth; ++: poor growth; +: very poor growth; +/−: growth barely visible; −: no growth
Protocol: as §1, §2

[3] = test system: Aspergillus niger pentose transporter protein An03g01620 (1620), FIG. 3A; assay: zero trans-influx sugar transport assay (14C-labelled pentose uptake, transporter expressed in S. cerevisiae); assay type: biochemical
Description: (§3) Cells were kept on ice until required.

[4] = test system: Aspergillus niger pentose transporter protein An08g01720 (1720), FIG. 4A; assay: as above; assay type: biochemical
Description: as §3

[5] = test system: Aspergillus niger pentose transporter protein An06g00560 (0560), FIG. 1A; assay: as above; assay type: biochemical; details: read-out: Km for L-arabinose, 5 s, 30° C., pH 6.5
Description: as §3

[6] = substrate: OC1OC[C@H](O)[C@H](O)[C@H]1O; assay: cells, lysate or membranes; details: other: zero trans-influx, 5 s, 30° C., pH 6.5
[7] = substrate: OC1OC[C@@H](O)[C@H](O)[C@H]1O; assay: cells, lysate or membranes; details: other: zero trans-influx, 5 s, 30° C., pH 6.5

| Molecule | growth ([1]; 25 mM pentose) | growth ([1]; 50 mM pentose) | growth ([1]; 100 mM pentose) | growth ([1]; 500 mM pentose) | growth ([2]; 25 mM pentose) | growth ([2]; 50 mM pentose) | growth ([2]; 100 mM pentose) | growth ([2]; 500 mM pentose) | Km ([3]; read-out: Km for D-xylose, 5 s, 30° C., pH 6.5) | Km ([3]; read-out: Km for L-arabinose, 5 s, 30° C., pH 6.5) | higher affinity for L-arabinose than An06g00560 ([4]; Km 4.9 mM compared to 75 mM) | Km ([4]; read-out: Km for L-arabinose, zero trans-influx, 5 s, 30° C., pH 6.5) | Km [5] | Km [6] | Km [7] |
| --- | --- | --- | --- | --- | --- | --- | --- | --- | --- | --- | --- | --- | --- | --- | --- |
| OC1OC[C@@H](O)[C@H](O)[C@H]1O (stereo partly drawn) [D-xylose] | +++ | ++ | ++ | ++ | ++ | + | + | + | 23 mM |  |  |  |  |  |  |
| OC1OC[C@H](O)[C@H](O)[C@H]1O (stereo partly drawn) [L-arabinose] | + | +/− | +/− | − | +++ | ++ | + | +/− |  | 7.5 mM | approximately 15 fold | 4.9 mM | 75 mM |  |  |
| Aspergillus niger pentose transporter protein An03g02190 (2190), FIG. 8A (Aspergillus niger CBS 513.88) (protein) MPRKRPQDELNGDVLQQEAQATGPNDQKSEEGIVDTPIPLLTWRSFLMGIFVSMGGFLFGYDTGQISGFLEMPNFLQRYGQQQADGTYYFSNARSGLIVALLSIGTLIGALIAAPIADRVGRKWSISGWSAMVCVGITIQISSPFGKWYQVAMGRWVAGLGVGALSLLVPMYQAETGPRHIRGSLVSTYQLFITLGIFVANCINFGTEARNDTGSWRIPMGITYIWAMILGFGIALFPESARYDYRHGREAKAARTLSRMYGIPENHRMLKLEIGEIRQKFVEEQERGEITWSHLLHAPRMKYRVAVGVALQALQQLTGANYFFYYGTTIFRGAGISNSYVTQMILGGVNFGTTFLGLYLIENYGRRRSLITGALWMFVCFMVFASVGHFSLDHENPERTHTAGVVMVVFACLFILGFASTWGPMVWTIIAELYPSEFRARAMSLATASNWLWNFLLAFFTPFITSAIDFRLGYVFAGCLFLAAGLVYVAVIEGRGRTLEEIDTMYVMKVPPWKSSKYVFPDIDPYDRRGSILSKAGASHIPQVSGGNETLSPHTTEV |  |  |  |  |  |  |  |  |  |  |  |  |  | 2.6 mM mM | 9 mM mM |
